Consider 17 molecules from ChEMBL document CHEMBL5137135, “Highly Oxidized Germacranolides from Elephantopus tomentosus and the Configurational Revision of Some Previously Reported Analogues” (J Nat Prod, 2022).

pIC50: −log10 of the molar value. Activity calls are given as the source filed them. The calls are words filed in the database; no cut-off is given here.

Format in all cases: functional, cell-based
Assay [1] relates to HepG2. Kind of assay: Cytotoxicity against human HepG2 cells assessed as inhibition of cell growth by MTT assay.
Assay [2] has as its system Hep 3B2. Kind of assay: Cytotoxicity against human Hep3B cells assessed as inhibition of cell growth by MTT assay. (In general: Tetrazolium assays rely on reduction of a dye to a coloured formazan, in cell work by metabolically active cells.)
The test system of assay [3] is HepG2. Nature of the assay: Induction of apoptosis in human HepG2 cells assessed as membrane blebbing at 1 to 4 uM after 48 hrs by phase contrast microscopic analysis. The following applies: dose 1-4 µM.
Assay [4] has as its system Hep 3B2. Kind of assay: Induction of apoptosis in human Hep3B cells assessed as cellular shrinkage at 1 to 4 uM after 48 hrs by phase contrast microscopic analysis. Conditions: dose 1-4 µM.
The subject of assay [5] is HepG2. Nature of the assay: Induction of mitochondrial membrane potential loss in human HepG2 cells by JC-1 staining based fluorescence assay.
Assay [6] relates to Hep 3B2. Kind of assay: Induction of apoptosis in human Hep3B cells assessed as membrane blebbing at 1 to 4 uM after 48 hrs by phase contrast microscopic analysis. The following applies: dose 1-4 µM.
Assay [7] deals with Hep 3B2. Kind of assay: Induction of apoptosis in human Hep3B cells at 1 to 4 uM after 48 hrs by Hoechst 33258 staining based assay. The following applies: dose 1-4 µM.
Assay [8] deals with HepG2. Kind of assay: Induction of apoptosis in human HepG2 cells at 1 to 4 uM after 48 hrs by Hoechst 33258 staining based assay. The following applies: dose 1-4 µM.
Assay [9] has as its system Hep 3B2. Kind of assay: Induction of mitochondrial membrane potential loss in human Hep3B cells by JC-1 staining based fluorescence assay.
Assay [10] concerns HepG2. Nature of the assay: Induction of apoptosis in human HepG2 cells assessed as cellular shrinkage at 1 to 4 uM after 48 hrs by phase contrast microscopic analysis. Conditions: dose 1-4 µM.

For orientation: pIC50 means the IC50 on a negative log10 scale, so that one unit is a factor of ten.

With `C=C1C[C@H](OC(=O)/C(C)=C/C)[C@H]2C(=C)C(=O)O[C@@H]2[C@@H]2O[C@@](O)(C1)C[C@@]2(C)O`, the figures for the pIC50 in the assay with HepG2 [1] and in the assay with Hep 3B2 [2] were 5.06 and 5.51, respectively.
The like results for `C=C1C(=O)O[C@H]2[C@H]1[C@@H](OC(=O)/C(C)=C/C)C/C(C)=C\[C@@]1(c3cccc(O)c3O)C=C(C)[C@H]2O1` were, in that order, 5.35 and 5.24.
The like results for `C=C(C)C(=O)O[C@H]1C/C(C)=C\[C@@]2(OC)C=C(C)[C@@H](O2)[C@H]2OC(=O)[C@@H](COC)[C@@H]21` were, in that order, below 5.00 and below 5.00.
The like results for `C/C=C(/C)C(=O)O[C@H]1C/C(C)=C\[C@@]2(OC)C=C(C)[C@@H](O2)[C@H]2OC(=O)[C@@H](COC)[C@@H]21` were, in that order, below 5.00 and below 5.00.
With `C=C1C[C@H](OC(=O)C(=C)C)[C@H]2C(=C)C(=O)O[C@@H]2[C@@H]2O[C@@](O)(C1)C[C@@]2(C)OC`, the negative-log IC50 (pIC50) is 5.07 in the assay with HepG2 [1] and 5.12 with Hep 3B2 [2].
The like results for `C=C(C)C(=O)O[C@H]1C/C(C)=C\[C@@]2(c3cccc(O)c3O)C=C(C)[C@@H](O2)[C@H]2OC(=O)C(=C)[C@@H]21` were, in that order, 5.37 and 5.25.
Turning to `C=C1C[C@H](OC(=O)C(=C)C)[C@H]2C(=C)C(=O)O[C@@H]2[C@@H]2O[C@@](OC)(C1)C[C@@]2(C)O`, the pIC50 in the assay on HepG2 [1] was 5.09; with Hep 3B2 [2], 5.62.
For `C=C1C(=O)O[C@H]2[C@H]1[C@@H](OC(=O)/C(C)=C/C)C/C(C)=C\[C@@]1(c3ccc(O)c(O)c3)C=C(C)[C@H]2O1`, in that order: 5.52 and 5.44.
The like results for `C=C1C(=O)O[C@H]2[C@H]1[C@@H](OC(=O)/C(C)=C\C)C/C(C)=C\[C@@]1(OC)C=C(C)[C@H]2O1` were, in that order, 5.46 and 5.42.
For `C=C1C[C@H](OC(=O)/C(C)=C/C)[C@H]2C(=C)C(=O)O[C@@H]2[C@@H]2O[C@@](OC)(C1)C[C@@]2(C)O`, in that order: 5.01 and 5.02.
As to `C/C=C(\C)C(=O)O[C@H]1C/C(C)=C\[C@@]2(OC)C=C(C)[C@@H](O2)[C@H]2OC(=O)[C@@H](CO)[C@@H]21`, the pIC50 in the assay on HepG2 [1] and with Hep 3B2 [2] was below 5.00 each time.
With `C=C(C)C(=O)O[C@H]1C/C(C)=C\[C@@]2(OC)C=C(C)[C@@H](O2)[C@H]2OC(=O)C(=C)[C@@H]21`, the pIC50 in the assay on HepG2 [1] is 5.42; in the assay with Hep 3B2 [2], 5.07.
The like results for `C=C1C[C@H](OC(=O)/C(C)=C/C)[C@H]2C(=C)C(=O)O[C@@H]2[C@@H]2O[C@](OC)(C=C2C)C1` were, in that order, 5.42 and 5.07.
The like results for `C=C(C)C(=O)O[C@H]1C/C(C)=C\[C@@]2(c3ccc(O)c(O)c3)C=C(C)[C@@H](O2)[C@H]2OC(=O)C(=C)[C@@H]21` were, in that order, 5.24 and 5.43.
Turning to `C=C1C[C@H](OC(=O)C(=C)C)[C@H]2C(=C)C(=O)O[C@@H]2[C@@H]2O[C@](OC)(C=C2C)C1`, the outcome in the assay on HepG2 [3], in the assay on Hep 3B2 [4], in the assay with HepG2 [5], with Hep 3B2 [6], in the assay with Hep 3B2 [7] and in the assay with HepG2 [8] was Active. For the same molecule, the outcome in the assay on Hep 3B2 [9] and in the assay on HepG2 [10] was Active. Besides, the values for the pIC50 with HepG2 [1] and in the assay on Hep 3B2 [2] were 5.66 and 5.62, respectively.
Consider `C=C1C[C@H](OC(=O)C(=C)C)[C@H]2C(=C)C(=O)O[C@@H]2[C@@H]2O[C@@](O)(C1)C[C@@]2(C)O`, for which the negative-log IC50 (pIC50) in the assay on HepG2 [1] was 5.14; in the assay with Hep 3B2 [2], 5.18.
`C=C1C(=O)O[C@H]2[C@H]1[C@@H](OC(=O)/C(C)=C/C)C/C(C)=C\[C@@]1(OC)C=C(C)[C@H]2O1`: the pIC50 with HepG2 [1] is 5.01; in the assay with Hep 3B2 [2], 5.30.
